# ChEMBL document CHEMBL1133695, “A three-dimensional model of lanosterol 14alpha-demethylase of Candida albicans and its interaction with azole antifungals” (J Med Chem, 2000)
# Test system: Candida albicans
# Experiment: Concentration required to reduce the growth of Candida albicans to 50% of that in the control
# Format: functional, organism-based
row,SMILES,IC50 [µM]
1,COc1cc(C(F)(F)F)ccc1C(O)(Cn1cncn1)Cn1cncn1,28.5
2,OC(Cn1cncn1)(Cn1cncn1)c1ccccc1C(F)(F)F,103
3,OC(Cn1cncn1)(Cn1cncn1)c1ccc(-c2ccc(Cl)cc2)cc1,7.19
4,OC(Cn1cncn1)(Cn1cncn1)c1ccc(C(F)(F)F)cc1,3.25
5,Cc1cc(F)ccc1C(O)(Cn1cncn1)Cn1cncn1,101
6,OC(Cn1cncn1)(Cn1cncn1)c1ccc(Oc2ccc(Cl)cc2)cc1,6.94
7,OC(Cn1cncn1)(Cn1cncn1)c1ccc(F)cc1F [FLUCONAZOLE],1.97
